Measurements as given in publication PMC11822212, “High-throughput screening identifies Aurora kinase B as a critical therapeutic target for Merkel cell carcinoma” (Nature Communications, 2025).
Where two headings read alike, the source gives them in different places.

Assays:
[1] = qHTS cell viability (CellTiter-Glo, 72 h; primary screen), control cell line; format: cell-based, human; conditions: human, HEK293T, read-out: Percent viability
MCC26 cells (VN-MCC) = test: qHTS cell viability (CellTiter-Glo, 72 h; primary and follow-up small molecule screen); format: cell-based, human
MKL-2 cells (VP-MCC) = test: as above; format: cell-based, human
MKL-1 cells (VP-MCC) = test: as above; format: cell-based, human
[2] = qHTS cell viability (CellTiter-Glo, 72 h; primary screen), control cell line; format: cell-based; conditions: human, read-out: Percent viability
UISO cells (VN-MCC) = test: qHTS cell viability (CellTiter-Glo, 72 h; primary and follow-up small molecule screen); format: cell-based, human; conditions: UISO
[3] = system: VP-MCC cell lines (WAGA, MKL-1, MKL-2); test: qHTS cell viability, VP-MCC cell lines as a group (mean AUC, VP.MCC.avg); format: cell-based, human; conditions: small molecule screen
[4] = system: MKL-1 (VP-MCC) xenograft tumors; parameters: method as in PMID 22572880; conditions: prior report; cited from earlier work
MCC13 cells (VN-MCC) = test: qHTS cell viability (CellTiter-Glo, 72 h; primary and follow-up small molecule screen); format: cell-based, human
[5] = qHTS cell viability (CellTiter-Glo, 72 h; primary screen), control cell line; format: cell-based, mouse; conditions: mouse, read-out: Percent viability
WAGA cells (VP-MCC) = test: qHTS cell viability (CellTiter-Glo, 72 h; primary and follow-up small molecule screen); format: cell-based, human; conditions: WAGA

SMILES: COCCn1c2c([n+](Cc3cnccn3)c1C)C(=O)c1ccccc1C2=O [sepantronium bromide, reference compound]
- viability at 72 h, 15.4 µM ([1]; HEK293T cells (control cell line), Log (M) -4.81358): 1%
- viability at 72 h, 5.12 µM ([1]; HEK293T cells (control cell line), Log (M) -5.2907): -4.1%
- viability at 72 h, 1.71 µM ([1]; HEK293T cells (control cell line), Log (M) -5.76782): -3.3%
- viability at 72 h, 63.2 nM ([1]; HEK293T cells (control cell line), Log (M) -7.19919): -1.7%
- viability at 72 h, 46.1 µM ([1]; HEK293T cells, Log (M) -4.33646): -1.2%
- viability at 72 h, 21.1 nM ([1]; HEK293T cells, Log (M) -7.67631): 23.3%
- viability at 72 h, 7.02 nM ([1]; HEK293T cells, Log (M) -8.15343): 104%
- viability at 72 h, 2.34 nM ([1]; HEK293T cells, Log (M) -8.63055): 100%
- viability at 72 h, 0.78 nM ([1]; HEK293T cells, Log (M) -9.10767): 100%
- Percent viability (MCC26 cells (VN-MCC); MCC-26, Log (M) -4.33646): 12.7%
- Percent viability (MCC26 cells (VN-MCC); MCC-26, Log (M) -4.81358): 14.1%
- Percent viability (MCC26 cells (VN-MCC); MCC-26, Log (M) -5.2907): 15.5%
- Percent viability (MCC26 cells (VN-MCC); MCC-26, Log (M) -5.76782): 13.0%
- Percent viability (MCC26 cells (VN-MCC); MCC-26, Log (M) -6.24494): 32.6%
- Percent viability (MCC26 cells (VN-MCC); MCC-26, Log (M) -6.72207): 74.3%
- Percent viability (MCC26 cells (VN-MCC); MCC-26, Log (M) -7.19919): 94.8%
- Percent viability (MCC26 cells (VN-MCC); MCC-26, Log (M) -7.67631): 100.8%
- Percent viability (MCC26 cells (VN-MCC); MCC-26, Log (M) -8.15343): 100.6%
- Percent viability (MCC26 cells (VN-MCC); MCC-26, Log (M) -8.63055): 101.9%
- Percent viability (MCC26 cells (VN-MCC); MCC-26, Log (M) -9.10767): 102.7%
- Percent viability (MKL-2 cells (VP-MCC); MKL2, Log (M) -4.33646): 5.0%
- Percent viability (MKL-2 cells (VP-MCC); MKL2, Log (M) -4.81358): 6.0%
- Percent viability (MKL-2 cells (VP-MCC); MKL2, Log (M) -5.2907): 6.6%
- Percent viability (MKL-2 cells (VP-MCC); MKL2, Log (M) -5.76782): 7.9%
- Percent viability (MKL-2 cells (VP-MCC); MKL2, Log (M) -6.24494): 7.7%
- Percent viability (MKL-2 cells (VP-MCC); MKL2, Log (M) -6.72207): 7.4%
- Percent viability (MKL-2 cells (VP-MCC); MKL2, Log (M) -7.19919): 9.2%
- Percent viability (MKL-2 cells (VP-MCC); MKL2, Log (M) -7.67631): 27.9%
- Percent viability (MKL-2 cells (VP-MCC); MKL2, Log (M) -8.15343): 100.0%
- Percent viability (MKL-2 cells (VP-MCC); MKL2, Log (M) -8.63055): 100.0%
- Percent viability (MKL-2 cells (VP-MCC); MKL2, Log (M) -9.10767): 102.5%
- Percent viability (MKL-1 cells (VP-MCC); MKL1, Log (M) -4.33646): 4.1%
- Percent viability (MKL-1 cells (VP-MCC); MKL1, Log (M) -4.81358): 5.1%
- Percent viability (MKL-1 cells (VP-MCC); MKL1, Log (M) -5.2907): 6.0%
- Percent viability (MKL-1 cells (VP-MCC); MKL1, Log (M) -5.76782): 6.5%
- Percent viability (MKL-1 cells (VP-MCC); MKL1, Log (M) -6.24494): 8.2%
- Percent viability (MKL-1 cells (VP-MCC); MKL1, Log (M) -6.72207): 7.5%
- Percent viability (MKL-1 cells (VP-MCC); MKL1, Log (M) -7.19919): 7.7%
- Percent viability (MKL-1 cells (VP-MCC); MKL1, Log (M) -7.67631): 8.0%
- Percent viability (MKL-1 cells (VP-MCC); MKL1, Log (M) -8.15343): 17.1%
- Percent viability (MKL-1 cells (VP-MCC); MKL1, Log (M) -8.63055): 55.6%
- Percent viability (MKL-1 cells (VP-MCC); MKL1, Log (M) -9.10767): 97.8%
- viability at 72 h, 46.1 µM ([2]; CRL-7250 cells (control cell line), CRL-7250, Log (M) -4.33646): -4.6%
- viability at 72 h, 15.4 µM ([2]; CRL-7250 cells (control cell line), CRL-7250, Log (M) -4.81358): 10.1%
- viability at 72 h, 5.12 µM ([2]; CRL-7250 cells (control cell line), CRL-7250, Log (M) -5.2907): -5.4%
- viability at 72 h, 1.71 µM ([2]; CRL-7250 cells (control cell line), CRL-7250, Log (M) -5.76782): -4.8%
- viability at 72 h, 569 nM ([2]; CRL-7250 cells (control cell line), CRL-7250, Log (M) -6.24494): -8.6%
- viability at 72 h, 190 nM ([2]; CRL-7250 cells (control cell line), CRL-7250, Log (M) -6.72207): 39.2%
- viability at 72 h, 63.2 nM ([2]; CRL-7250 cells (control cell line), CRL-7250, Log (M) -7.19919): 65.6%
- viability at 72 h, 21.1 nM ([2]; CRL-7250 cells, CRL-7250, Log (M) -7.67631): 101%
- viability at 72 h, 2.34 nM ([2]; CRL-7250 cells, CRL-7250, Log (M) -8.63055): 100%
- Percent viability (UISO cells (VN-MCC); Log (M) -4.33646): 1.7%
- Percent viability (UISO cells (VN-MCC); Log (M) -4.81358): -3.1%
- Percent viability (UISO cells (VN-MCC); Log (M) -5.76782): 0.3%
- Percent viability (UISO cells (VN-MCC); Log (M) -6.24494): -7.3%
- Percent viability (UISO cells (VN-MCC); Log (M) -6.72207): -3.8%
- Percent viability (UISO cells (VN-MCC); Log (M) -7.19919): 3.4%
- Percent viability (UISO cells (VN-MCC); Log (M) -7.67631): 44.8%
- Percent viability (UISO cells (VN-MCC); Log (M) -8.15343): 99.6%
- Percent viability (UISO cells (VN-MCC); Log (M) -8.63055): 102.4%
- Percent viability (UISO cells (VN-MCC); Log (M) -9.10767): 104.0%
- viability of VP-MCC (in words) [3]: potent compound for inhibiting the viability of VP-MCC
- growth of MKL-1 (VP-MCC) xenograft tumors (in words) [4]: slowed the growth of MKL-1 (VP-MCC) xenograft tumors
- Percent viability (MCC13 cells (VN-MCC); MCC-13, Log (M) -4.33646): 8.9%
- Percent viability (MCC13 cells (VN-MCC); MCC-13, Log (M) -4.81358): 6.8%
- Percent viability (MCC13 cells (VN-MCC); MCC-13, Log (M) -5.2907): 19.3%
- Percent viability (MCC13 cells (VN-MCC); MCC-13, Log (M) -5.76782): 19.0%
- Percent viability (MCC13 cells (VN-MCC); MCC-13, Log (M) -6.24494): 57.5%
- Percent viability (MCC13 cells (VN-MCC); MCC-13, Log (M) -6.72207): 89.4%
- Percent viability (MCC13 cells (VN-MCC); MCC-13, Log (M) -7.19919): 92.8%
- Percent viability (MCC13 cells (VN-MCC); MCC-13, Log (M) -7.67631): 105.1%
- Percent viability (MCC13 cells (VN-MCC); MCC-13, Log (M) -8.15343): 92.1%
- Percent viability (MCC13 cells (VN-MCC); MCC-13, Log (M) -8.63055): 110.1%
- Percent viability (MCC13 cells (VN-MCC); MCC-13, Log (M) -9.10767): 104.4%
- viability at 72 h, 15.4 µM ([5]; NIH-3T3 cells (control cell line), 3T3, Log (M) -4.81358): 62.5%
- viability at 72 h, 5.12 µM ([5]; NIH-3T3 cells (control cell line), 3T3, Log (M) -5.2907): 69.8%
- viability at 72 h, 1.71 µM ([5]; NIH-3T3 cells (control cell line), 3T3, Log (M) -5.76782): 96.1%
- viability at 72 h, 0.569 µM ([5]; NIH-3T3 cells (control cell line), 3T3, Log (M) -6.24494): 104%
- viability at 72 h, 190 nM ([5]; NIH-3T3 cells (control cell line), 3T3, Log (M) -6.72207): 100%
- viability at 72 h, 63.2 nM ([5]; NIH-3T3 cells (control cell line), 3T3, Log (M) -7.19919): 100%
- viability at 72 h, 21.1 nM ([5]; NIH-3T3 cells (control cell line), 3T3, Log (M) -7.67631): 104%
- viability at 72 h, 46.1 µM ([5]; NIH-3T3 cells, 3T3, Log (M) -4.33646): 20.8%
- viability at 72 h, 7.02 nM ([5]; NIH-3T3 cells, 3T3, Log (M) -8.15343): 103%
- viability at 72 h, 2.34 nM ([5]; NIH-3T3 cells, 3T3, Log (M) -8.63055): 100%
- viability at 72 h, 0.78 nM ([5]; NIH-3T3 cells, 3T3, Log (M) -9.10767): 100%
- Percent viability (WAGA cells (VP-MCC); Log (M) -4.33646): 2.2%
- Percent viability (WAGA cells (VP-MCC); Log (M) -4.81358): 2.7%
- Percent viability (WAGA cells (VP-MCC); Log (M) -5.2907): 3.2%
- Percent viability (WAGA cells (VP-MCC); Log (M) -5.76782): 3.6%
- Percent viability (WAGA cells (VP-MCC); Log (M) -6.24494): 3.4%
- Percent viability (WAGA cells (VP-MCC); Log (M) -6.72207): 4.1%
- Percent viability (WAGA cells (VP-MCC); Log (M) -7.19919): 5.7%
- Percent viability (WAGA cells (VP-MCC); Log (M) -7.67631): 15.6%
- Percent viability (WAGA cells (VP-MCC); Log (M) -8.15343): 103.1%
- Percent viability (WAGA cells (VP-MCC); Log (M) -8.63055): 106.2%
- Percent viability (WAGA cells (VP-MCC); Log (M) -9.10767): 107.0%
